Reference: patent publication US12421249B2, “Inhibitors of APOL1 and methods of using same” (Vertex Pharmaceuticals Incorporated, priority 2020, dated 2025)
pIC50: −log10 of the molar value.

Target: T1, APOL1 G1 (Homo sapiens, UniProt O14791, I384M/S342G)
T1 sequence (O14791 28-398 S342G/I384M): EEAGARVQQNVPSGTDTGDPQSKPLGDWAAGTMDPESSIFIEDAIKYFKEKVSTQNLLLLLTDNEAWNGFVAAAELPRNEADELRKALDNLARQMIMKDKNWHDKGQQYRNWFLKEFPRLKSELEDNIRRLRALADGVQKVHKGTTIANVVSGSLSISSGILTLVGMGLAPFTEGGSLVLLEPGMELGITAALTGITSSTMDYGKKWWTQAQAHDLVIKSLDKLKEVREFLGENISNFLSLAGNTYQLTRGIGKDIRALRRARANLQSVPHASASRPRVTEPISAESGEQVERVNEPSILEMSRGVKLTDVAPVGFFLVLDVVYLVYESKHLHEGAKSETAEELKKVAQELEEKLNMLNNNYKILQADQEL
Assay: MultiTox-Fluor Multiplex Cytotoxicity Assay in tet-inducible APOL1 G1 T-REx-HEK293 cells (clone G1 DC3.25)
Type: cell-based
Parameters: expressed in transfected cells; host or cells: T-REx HEK293, pAAVS1-Puro-APOL1 G1, clone G1 DC3.25
Settings: Multi-Tox Assay; IP50 = IC50 for cell proliferation; APOL1 variant cell line not given
Protocol: The MultiTox-Fluor Multiplex Cytotoxicity Assay is a single-reagent-addition, homogeneous, fluorescence assay that measures the number of live and dead cells simultaneously in culture wells. The assay measures cell viability and cytotoxicity by detecting two distinct protease activities. The live-cell protease activity is restricted to intact viable cells and is measured using a fluorogenic, cell-permeant peptide glycyl-phenylalanylamino fluorocoumarin (GF-AFC) substrate. The substrate enters intact cells, where it is cleaved to generate a fluorescent signal proportional to the number of living cells. […] A second, cell-impermeant, fluorogenic peptide substrate (bis-AAF-R110 Substrate) is used to measure dead-cell protease that has been released from cells that have lost membrane integrity. A ratio of dead to live cells is used to normalize data.
Briefly, the tet-inducible transgenic APOL1 T-REx-HEK293 cell lines were incubated with 50 ng/mL tet to induce APOL1 in the presence of 3-(2-(4-fluorophenyl)-1H-indol-3-yl)-N-((3S,4R)-4-hydroxy-2-oxopyrrolidin-3-yl)propenamide at […], 0.0045, 0.0015, 0.0005 μM in duplicate for 24 hours in a humidified 37° C. incubator. The MultiTox reagent was added to each well and placed back in the incubator for an additional 30 minutes. The plate was read on the EnVision plate reader. A ratio of dead to live cells was used to normalize, and data was imported, analyzed and fit using Genedata Screener (Basel, Switzerland) software. Data was normalized using percent of control, no tet (100% viability), and 50 ng/mL tet treated (0% viability), and fit using Smart Fit. The reagents, methods, and complete protocol for the MultiTox assay are described below.
Human embryonic kidney (HEK293) cell lines containing a tet-inducible expression system (T-REx™; Invitrogen, Carlsbad, CA) and Adeno-associated virus site 1 pAAVS1-Puro-APOL1 G0 or pAAVS1-Puro-APOL1 G1 or pAAVS1-Puro-APOL1 G2 Clones G0 DC2.13, G1 DC3.25, and G2 DC4.44 were grown in a T-225 flask at ˜90% confluency in cell growth media (DMEM, 10% Tet-free FBS, 2 mM L-glutamine, 100 Units/mL penicillin-streptomycin, 5 μg/mL blasticidin S HCl, 1 μg/mL puromycin dihydrochloride). Cells were washed with DPBS and then trypsinized to dissociate from the flask. Media was used to quench the trypsin, cells were then pelleted at 200 g and resuspended in fresh cell assay media (DMEM, 2% Tet-free FBS, 2 mM L-glutamine, 100 Units/mL penicillin-streptomycin). Cells were counted and diluted to 1.17×10^6 cells/mL. 20 μL of cells (23,400/well) were dispensed to every well of a 384-well Poly-D-Lysine coated plate using the Multidrop dispenser. The plates were then incubated at room temperature for one hour.
Tetracycline is needed to induce APOL1 expression. 1 mg/mL tet stock in water was diluted to 250 ng/mL (5×) in cell assay media. 60 μL of cell assay media (no tet control) was dispensed in columns 1 and 24, and 60 μL of 5× tet was dispensed in 384-PP-round bottom plate in columns 2 to 23 with the Multidrop dispenser.
Assay ready plates from the Global Compound Archive were ordered using template 384_APOL1Cell_DR10n2_50 μM_v3. Compounds were dispensed at 200 nL in DMSO. The final top concentration was 10 μM with a 10 point 3-fold dilution in duplicate in the MultiTox assay.
20 μL were transferred from the 5× tet plate to the ARP and mixed, then 5 μL of 5× tet and the compounds were transferred to the cell plate and mixed using the Bravo. The cell plate was placed in the humidified 37° C. 5% CO2 incubator for 24 hours.
The MultiTox-Fluor Multiplex Cytotoxicity Assay was performed in accordance with the manufacturer's protocol. After cells were incubated with tet and compound for 24 hours, 25 μL of 1× MultiTox reagent was added to each well using the Multidrop dispenser; the plates were placed on a plate shaker (600 rpm) for 2 minutes, then centrifuged briefly and placed back in the 37° C. incubator for 30 minutes. […]

SMILES: [2H]C1([2H])O[C@@]2(C[C@@H](c3cn(C)nn3)N[C@@H](C)C2)c2sc(Cl)cc2[C@]1([2H])O [Compound 385, (2S,4S,4′S,6S)-2′-chloro-4′,5′,5′-trideuterio-2-methyl-6-(1-methyltriazol-4-yl)spiro[piperidine-4,7′-thieno[2,3-c]pyran]-4′-ol]
- pIC50: > 7.30
